Source: patent US11103467B2, “Method for treating depression” (DEVELCO PHARMA SCHWEIZ AG, priority 2014, dated 2021)

Conditions: both, human, serum, iv, 5 mg

## CNC1(c2ccccc2Cl)CCCCC1=O (racemic) [(±)-ketamine, 2-(2-chlorophenyl)-2-(methylamino)cyclohexan-1-one]
  AUC(0-inf): 59.9 ± 13.2 ng·h/mL
  Cmax: 33.7 ± 9.74 ng/mL
  half-life: 6.99 ± 5.22 h
